Where “and” joins values, the source holds several entries; their conditions need not be identical. Equal values may be shown once. Read-outs that look alike come from different tables or passages of the source. One block for each molecule: values may come before it.
How the values were obtained:
[1] = Antioxidant activity, ORAC-FL method; details: Trolox as standard
Description: The modified Oxygen Radical Absorbance Capacity Fluorescein (ORAC-FL) method was used for antioxidant activity test. In brief, the mixture of test compounds (20 μL) and fluorescein (120 μL, final concentration of 150 nM) was added into a black 96-well plate and incubated for 15 min at 37 °C. Then, 60 μL of 2,2′-azobis(2-amidinopropane) dihydrochloride (AAPH) solution (12 mM) was added rapidly to induce the reaction. The fluorescence with an excitation wavelength of 485 nm and emission at 535 nm was measured in Spectrafluor Plus plate reader (Tecan, Crailsheim, Germany) every minute for 4 h. Integration of the area under the curve (AUC) was […] 1 to 8 μM Trolox was used as a standard. Each compound was tested at 1–10 μM at least in three independent assays. The ORAC-FL values of each compound were calculated according to Equation (1) and expressed as Trolox equivalents.(1) ORAC-FL value=AUCsample−AUCblank/AUCTrolox−AUCblank×ConcentrationTrolox/Concentrationsample

[2] = target: T1, PDE9 (catalytic domain of PDE9A2) (Homo sapiens, UniProt O76083); assay: Enzymatic assay against PDE9 (3H-cGMP hydrolysis, scintillation counting); type: biochemical; details: for inhibition at 0.01 µM: at a concentration of 0.01 μM
T1 construct: PDE9 recombinant catalytic domain (amino acid 181–506); made in house; host or cells: E. coli BL21 (Codonplus)
Description: In brief, E. coli strain BL21 (Codonplus), which carrying with recombinant pET-PDE9A2 plasmid, was grown in LB medium (containing 100 μg/mL ampicillin and 0.4% glucose) at 37 °C until an OD600 achieved 0.6–0.8. Then, the temperature was turned down to 15 °C, and 0.1 mM iso-propyl-b-D-thiogalactopyranoside was added to LB medium to induce the expression of PDE9A2 protein. Bacteria were induced for 20 h and collected for purified PDE9A2 recombinant protein by a Ni-NTA column (Qiagen, Venlo, The Netherlands).
As for the enzymatic assays, ^3H-cGMP (20,000–30,000 cpm, GE Healthcare), the substrate for enzymatic assays against PDE9A2, were diluted in an assay buffer (containing 50 mM Tris-HCl (pH 8.0), 10 mM MgCl2, and 1 mM DTT). And then, the substrate ^3H-cGMP, catalytic domain of PDE9A2, and different concentrations of tested compounds were incubated at room temperature for 15 min. To terminate the reaction, 0.2 M ZnSO4 and 0.2 N Ba(OH)2 were added to the mixture, leaving unreacted ^3H-cGMP in the supernatant. […] Each compound was measured at a minimum of eight concentrations for the IC50 calculation and repeated at least three times.
4.Enzymatic assays against PDE9
The assay buffer contains 50 mM Tris-HCl (pH 8.0), 10 mM MgCl2 or 4 mM MnCl2, 1 mM DTT, and 10-20 nM 3H-cGMP (15000−30000 cpm/assay, CPM control). The reaction was carried out at room temperature for 15 min and then terminated by addition of 0.2 M ZnSO4. The reaction product 3H-GMP was precipitated out by […], whereas unreacted 3H-cGMP remained in the supernatant. The radioactivity in the supernatant was measured in 2.5 […]
(CPMenzyme). For the measurement of IC50 of inhibitors, at least seven concentrations of inhibitors were used in the presence of 3H-cGMP. The enzyme concentration in a range of 10− 100 ng/mL, which hydrolyzed 50- 70% of the substrate, was chosen for each inhibitory assay. The radioactivity was recorded as CPMinhibitor. The IC50 values for PDE9 were calculated using a nonlinear regression analysis.
Inhibition = […] × 100%

[3] = 0.25 h, read-out: Inhibition ratio against PDE9
[4] = 0.25 h, at a concentration of 0.1 μM, read-out: Inhibition ratio against PDE9

T1 sequence (O76083 241-566): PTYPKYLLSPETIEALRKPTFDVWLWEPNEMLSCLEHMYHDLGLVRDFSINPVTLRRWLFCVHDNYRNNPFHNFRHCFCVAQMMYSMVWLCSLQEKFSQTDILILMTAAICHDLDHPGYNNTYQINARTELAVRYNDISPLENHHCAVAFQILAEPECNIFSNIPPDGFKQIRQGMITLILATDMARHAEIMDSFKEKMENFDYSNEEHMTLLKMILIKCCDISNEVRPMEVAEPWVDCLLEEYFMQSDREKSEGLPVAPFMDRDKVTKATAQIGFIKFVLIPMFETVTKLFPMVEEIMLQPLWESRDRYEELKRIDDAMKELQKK

inhibition at 0.1 µM [2, 4]: ~50%
SMILES: C[C@@H](NCc1n[nH]c2ccccc12)c1nc2c(cnn2C2CCCC2)c(=O)[nH]1 [Compound 18e, (R)-6-(1-(((1H-indazol-3-yl)methyl)amino)ethyl)-1-cyclopentyl-1,5-dihydro-4H-pyrazolo[3,4-d]pyrimidin-4-one]
ORAC [1]: 0.15 ± 0.03 μmol of Trolox equiv/μmol tested compound

IC50 [2]: 214 nM
Inhibition (PDE9 dose-response, single runs) ([2]; 6.4875 nM, 0.0064875 µM): 4.86% and 1.81%
Inhibition (PDE9 dose-response, single runs) ([2]; 12.975 nM, 0.012975 µM): 9.60%
inhibition at 0.012975 µM ([2]; 12.975 nM, read-out: Inhibition (PDE9 dose-response, single runs)): 4.99%
Inhibition (PDE9 dose-response, single runs) ([2]; 25.95 nM, 0.02595 µM): 11.54%
inhibition at 0.02595 µM ([2]; 25.95 nM, read-out: Inhibition (PDE9 dose-response, single runs)): 16.6%
Inhibition (PDE9 dose-response, single runs) ([2]; 51.9 nM, 0.0519 µM): 21.64%
inhibition at 0.0519 µM ([2]; 51.9 nM, read-out: Inhibition (PDE9 dose-response, single runs)): 20.2%
Inhibition (PDE9 dose-response, single runs) ([2]; 103.8 nM, 0.1038 µM): 34.81%
inhibition at 0.1038 µM ([2]; 103.8 nM, read-out: Inhibition (PDE9 dose-response, single runs)): 33.4%
Inhibition (PDE9 dose-response, single runs) ([2]; 207.6 nM, 0.2076 µM): 49.32%
inhibition at 0.2076 µM ([2]; 207.6 nM, read-out: Inhibition (PDE9 dose-response, single runs)): 54.3%
Inhibition (PDE9 dose-response, single runs) ([2]; 415.2 nM, 0.4152 µM): 80.76%
inhibition at 0.4152 µM ([2]; 415.2 nM, read-out: Inhibition (PDE9 dose-response, single runs)): 86.5%
Inhibition (PDE9 dose-response, single runs) ([2]; 830.4 nM, 0.8304 µM): 88.96%
inhibition at 0.8304 µM ([2]; 830.4 nM, read-out: Inhibition (PDE9 dose-response, single runs)): 93%
SMILES: COc1ccc2c(c1)c(CN[C@H](C)c1nc3c(cnn3C3CCCC3)c(=O)[nH]1)cn2C [Compound 18d, (R)-1-cyclopentyl-6-(1-(((5-methoxy-1-methyl-1H-indol-3-yl)methyl)amino)ethyl)-1,5-dihydro-4H-pyrazolo[3,4-d]pyrimidin-4-one]

The next lines start with the molecule.

SMILES: C[C@@H](NCc1c[nH]c2ccccc12)c1nc2c(cnn2C2CCCC2)c(=O)[nH]1 [Compound 18a, (R)-6-(1-(((1H-indol-3-yl)methyl)amino)ethyl)-1-cyclopentyl-1,5-dihydro-4H-pyrazolo[3,4-d]pyrimidin-4-one]
ORAC [1]: 0.60 ± 0.06 μmol of Trolox equiv/μmol tested compound
inhibition at 0.01 µM [2, 3]: 46%
inhibition at 0.1 µM [2, 4]: ~50%

SMILES: CC(Cc1c[nH]c2ccccc12)Nc1nc2c(cnn2C2CCCC2)c(=O)[nH]1 (centres unmarked) [Compound 17a, 6-((1-(1H-indol-3-yl)propan-2-yl)amino)-1-cyclopentyl-1,5-dihydro-4H-pyrazolo[3,4-d]pyrimidin-4-one]
ORAC [1]: 0.37 ± 0.04 μmol of Trolox equiv/μmol tested compound
inhibition at 0.01 µM [2, 3]: 68%
inhibition at 0.1 µM [2, 4]: 78%

SMILES: COc1ccc2[nH]cc(CC(C)Nc3nc4c(cnn4C4CCOCC4)c(=O)[nH]3)c2c1 (centres unmarked) [Compound 17d, 6-((1-(5-methoxy-1H-indol-3-yl)propan-2-yl)amino)-1-(tetrahydro-2H-pyran-4-yl)-1,5-dihydro-4H-pyrazolo[3,4-d]pyrimidin-4-one]
IC50 [2]: 89 nM
Inhibition (PDE9 dose-response, single runs) ([2]; 6.25 nM, 0.00625 µM): 13.00%
inhibition at 0.00625 µM ([2]; 6.25 nM, read-out: Inhibition (PDE9 dose-response, single runs)): 13.8%
Inhibition (PDE9 dose-response, single runs) ([2]; 12.5 nM, 0.0125 µM): 26.71%
inhibition at 0.0125 µM ([2]; 12.5 nM, read-out: Inhibition (PDE9 dose-response, single runs)): 34.7%
Inhibition (PDE9 dose-response, single runs) ([2]; 25 nM, 0.025 µM): 28.77%
inhibition at 0.025 µM ([2]; 25 nM, read-out: Inhibition (PDE9 dose-response, single runs)): 26.4%
Inhibition (PDE9 dose-response, single runs) ([2]; 50 nM, 0.05 µM): 37.79%
inhibition at 0.05 µM ([2]; 50 nM, read-out: Inhibition (PDE9 dose-response, single runs)): 43.8%
Inhibition (PDE9 dose-response, single runs) ([2]; 100 nM, 0.1 µM): 60.91%
inhibition at 0.1 µM ([2]; 100 nM, read-out: Inhibition (PDE9 dose-response, single runs)): 61.6%
Inhibition (PDE9 dose-response, single runs) ([2]; 200 nM, 0.2 µM): 75.64%
inhibition at 0.2 µM ([2]; 200 nM, read-out: Inhibition (PDE9 dose-response, single runs)): 77.6%
Inhibition (PDE9 dose-response, single runs) ([2]; 400 nM, 0.4 µM): 87.67%
inhibition at 0.4 µM ([2]; 400 nM, read-out: Inhibition (PDE9 dose-response, single runs)): 90.5%
Inhibition (PDE9 dose-response, single runs) ([2]; 800 nM, 0.8 µM): 94.30%
inhibition at 0.8 µM ([2]; 800 nM, read-out: Inhibition (PDE9 dose-response, single runs)): 96.4%
Inhibition (PDE9 dose-response, single runs) ([2]; 1600 nM, 1.6 µM): 97.54%
inhibition at 1.6 µM ([2]; 1600 nM, read-out: Inhibition (PDE9 dose-response, single runs)): 108%
inhibition at 0.01 µM [2, 3]: 13%

— publication PMC11852235, “Discovery of Effective Inhibitors Against Phosphodiesterase 9, a Potential Therapeutic Target of Alzheimer’s Disease with Antioxidant Capacities” (Antioxidants, 2025)
